# Assay results as given in patent US4585773A, “Isoindolinyl-alkyl-piperazines” (Bristol-Myers Company, priority 1984, dated 1986).
# Columns and labels:
# [1] = system: α blocking activity (phenylephrine); assay: in vivo α blocking activity, phenylephrine (PE) as α-agonist (Table III); parameters: species or system rat; ED50: unit not given beside the values; settings: for Average Dose Shift: ED50 after/before drug, PE; for in vivo α blocking activity (in words): conclusion from Table III; for ED50: iv
# In short: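 Rats received phenylephrine or norepinephrine as α-agonist before and after test drug, given intravenously except oral in Tests 2a, 3, 3a and 26-29. ED50 is the average interpolated agonist dose raising mean arterial pressure by 50 mm Hg; dose shift is the post-drug/pre-drug ED50 ratio.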
# [2] = system: Spontaneously Hypertensive rat; assay: antihypertensive activity, Spontaneously Hypertensive Rat (Table II); assay type: in vivo; settings: for antihypertensive effect (in words): conclusion from Table II (SHR, and DOCA for Examples I-IV)
# In short: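 Conditioned male SHR (300-400 g), prewarmed at 30° C and restrained; systolic blood pressure and heart rate by tail-cuff before and 2, 4 and 24 h after oral dosing in 0.25% Methocel (5 ml/kg). Values are changes from zero-hour readings; peak ΔBP above 20 mm Hg taken as activity.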
# [3] = system: α blocking activity (norepinephrine); assay: in vivo α blocking activity, norepinephrine (NE) as α-agonist (Table III); parameters: species or system rat; settings: ED50 after/before drug
# Method: In this example the compounds of Examples I (modified), II, III, V, VI, VII, VIII, IX and XI were tested in rats for in vivo α blocking activity according to methodology described at page 312 of Deitchman, et al., Journal of Pharmacological Methods, 3, 311-321 (1980). In this test phenylephrine (PE below) or norepinephrine (NE below) was administered as an α-agonist to the rats before and after dosing with the test drug and the average interpolated dose or PE/NE effecting a 50 mm Hg increase in mean arterial blood pressure was determined. Table III below records the results. In such Table, ED50 stands for such average interpolated dose and Average Dose Shift stands for the average ratio of ED50 after drug administration to ED50 before drug administration. The compound of Example I was tested as its monochloride 2-propanolate hydrate, i.e. as C22 H27 ClN4 O4 S.HCl 0.2(CH3)2 CHOH.0.15H2 O in Tests 1-5 and as the 3/4 mole hydrochloride, i.e. C22 H27 ClN 4 O4 S.3/4HCL in Tests 2a and 3a. The route was intravenous except in the case of the runs of Test Nos. 2a, 3, 3a, 26-29 the route was oral.
# [4] = SHR, 3.0 mg/kg oral, as 3/4 mole hydrochloride
# [5] = SHR, 30 mg/kg oral, as 3/4 mole hydrochloride
# [6] = SHR, 3.0 to 30 mg/kg body weight
smiles,measurement,setting,value
"COc1ccccc1N1CCN(CCCN2Cc3cc(Cl)c(S(N)(=O)=O)cc3C2=O)CC1 [Example I, 6-chloro-2,3-dihydro-2-[3-[4-(2-methoxyphenyl)-1-piperazinyl]propyl]-3-oxo-1H-isoindole-5-sulfonamide]",Average Dose Shift,"[1]; dose 30, oral",33 ± 11
same,in vivo α blocking activity (in words),[1],active as in vivo α blockers
same,ED50,[1],161.8
same,ΔBP 4 hours,"[2]; SHR, 0.3 mg/kg oral",-18 ± 6 mm Hg
same,ΔHR 4 hours,"[2]; SHR, 0.3 mg/kg oral",11 ± 3 beats per minute
same,ΔBP 4 hours,"[2]; SHR, 3.0 mg/kg oral",-43 ± 7 mm Hg
same,ΔHR 4 hours,"[2]; SHR, 3.0 mg/kg oral",10 ± 15 beats per minute
same,ΔBP 2 hours,[2]; [4],-23 ± 8 mm Hg
same,ΔBP 4 hours,[2]; [4],-10 ± 5 mm Hg
same,ΔHR 2 hours,[2]; [4],8 ± 10 beats per minute
same,ΔHR 4 hours,[2]; [4],14 ± 18 beats per minute
same,ΔBP 2 hours,"[2]; SHR, 30 mg/kg oral",-84 ± 10 mm Hg
same,ΔHR 2 hours,"[2]; SHR, 30 mg/kg oral",16 ± 15 beats per minute
same,ΔBP 2 hours,[2]; [5],-97 ± 10 mm Hg
same,ΔBP 4 hours,[2]; [5],-52 ± 13 mm Hg
same,ΔHR 2 hours,[2]; [5],16 ± 8 beats per minute
same,ΔHR 4 hours,[2]; [5],2 ± 9 beats per minute
same,systolic blood pressure / antihypertensive activity (in words),[2]; [6],dose-dependent decrease in systolic blood pressure
same,time at which antihypertensive effect seen,[2]; [6],about two
same,antihypertensive effect (in words),[2],good antihypertensive effect without significantly affecting heart rate
same,Average Dose Shift,"[3]; dose 0.3, intravenous",3 ± 0.3
same,Average Dose Shift,"[3]; dose 1.0, intravenous",11 ± 1
"COc1ccccc1N1CCN(CCN2Cc3cc(Cl)c(S(N)(=O)=O)cc3C2=O)CC1 [Example III, 6-Chloro-2,3-dihydro-2-[2-[4-(2-methoxyphenyl)-1-piperazinyl]ethyl]-3-oxo-1H-isoindole-5-sulfonamide]",Average Dose Shift,"[1]; dose 10, intravenous",dose too high
same,in vivo α blocking activity (in words),[1],active as in vivo α blockers
same,ED50,[1],41.0
same,ΔBP 2 hours,"[2]; SHR, 30 mg/kg oral",-47 ± 14 mm Hg
same,ΔBP 4 hours,"[2]; SHR, 30 mg/kg oral",-69 ± 20 mm Hg
same,ΔHR 2 hours,"[2]; SHR, 30 mg/kg oral",10 ± 3 beats per minute
same,ΔHR 4 hours,"[2]; SHR, 30 mg/kg oral",10 ± 10 beats per minute
same,antihypertensive effect (in words),[2],good antihypertensive effect without significantly affecting heart rate
